# Experimental data reported in patent publication US11020395B2, “Cycloalkyl substituted triazole compounds as agonists of the APJ receptor” (AMGEN INC., priority 2016, dated 2021).
# Target: human APJ receptor (Homo sapiens (Human), UniProt P35414)
# Assay: [35S]GTPγS binding assay on membranes from CHO cells stably expressing human APJ receptor
# Assay type: biochemical
# Details: [35S]GTPγS SPA, read-out: Activity hAPJ SPA EC50 IP
# Description: [^35S]GTPγS Binding The human APJ receptor was cloned by polymerase chain reaction and the gene encoding the receptor was subcloned in pFLAG-CMV™-3 expression vector (Sigma, Saint Louis, Mo. USA) in-house at Amgen. A GTPγS binding assay was performed on membranes prepared from CHO cells stably expressing human APJ receptor. The optimum experimental conditions for the concentrations of GDP, MgCl2, and NaCl in the assay buffer were initially determined. […] Incubation was at RT for 90 min and the microplate was read using a ViewLux™ ultra HTS Microplate Imager (PerkinElmer, Inc.). All the results presented are means of several independent experiments and analyzed by non-linear regression methods using the commercially available program Prism (GraphPad, San Diego, Calif.) providing the EC50 values detailed in Table 25.
# Chain of human APJ receptor (P35414 whole entry): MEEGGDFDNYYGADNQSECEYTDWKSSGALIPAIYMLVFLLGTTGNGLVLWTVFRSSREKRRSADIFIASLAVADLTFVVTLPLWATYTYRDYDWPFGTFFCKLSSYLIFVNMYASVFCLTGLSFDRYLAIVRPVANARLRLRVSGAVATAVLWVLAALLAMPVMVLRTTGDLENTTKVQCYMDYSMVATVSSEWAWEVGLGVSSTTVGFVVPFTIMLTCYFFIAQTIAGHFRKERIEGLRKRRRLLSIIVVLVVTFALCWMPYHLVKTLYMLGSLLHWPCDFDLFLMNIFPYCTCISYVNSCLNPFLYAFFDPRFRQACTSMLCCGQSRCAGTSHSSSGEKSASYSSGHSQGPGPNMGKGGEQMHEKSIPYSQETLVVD
row,SMILES,EC50
1,"COc1cccc(OC)c1-n1c(NS(=O)(=O)[C@@H](C)[C@H](OC)c2ncc(Cl)cn2)nnc1[C@H]1C[C@H](C(F)(F)F)C1 (single isomer, unassigned) [Example 149.0, (1R,2S)-1-(5-chloropyrimidin-2-yl)-N-(4-(2,6-dimethoxyphenyl)-5-((1r,3S)-3-(trifluoromethyl)cyclobutyl)-4H-1,2,4-triazol-3-yl)-1-methoxypropane-2-sulfonamide or (1R,2S)-1-(5-chloropyrimidin-2-yl)-N-(4-(2,6-dimethoxyphenyl)-5-((1s,3R)-3-(trifluoromethyl)cyclobutyl)-4H-1,2,4-triazol-3-yl)-1-methoxypropane-2-sulfonamide]",4.2 nM
2,"COc1cccc(OC)c1-n1c(NS(=O)(=O)[C@@H](C)[C@H](OC)c2ncc(Cl)cn2)nnc1[C@H]1C[C@H](C(F)(F)F)C1 (single isomer, unassigned) [Example 150.0, (1R,2S)-1-(5-chloropyrimidin-2-yl)-N-(4-(2,6-dimethoxyphenyl)-5-((1r,3S)-3-(trifluoromethyl)cyclobutyl)-4H-1,2,4-triazol-3-yl)-1-methoxypropane-2-sulfonamide or (1R,2S)-1-(5-chloropyrimidin-2-yl)-N-(4-(2,6-dimethoxyphenyl)-5-((1s,3R)-3-(trifluoromethyl)cyclobutyl)-4H-1,2,4-triazol-3-yl)-1-methoxypropane-2-sulfonamide]",6.8 nM
3,"COc1cccc(OC)c1-n1c(NS(=O)(=O)[C@@H](C)[C@H](OC)c2ncc(Cl)cn2)nnc1[C@H]1C[C@H](F)C1 (single isomer, unassigned) [Example 151.0, (1R,2S)-1-(5-chloropyrimidin-2-yl)-N-(4-(2,6-dimethoxyphenyl)-5-((1r,3S)-3-fluorocyclobutyl)-4H-1,2,4-triazol-3-yl)-1-methoxypropane-2-sulfonamide or (1R,2S)-1-(5-chloropyrimidin-2-yl)-N-(4-(2,6-dimethoxyphenyl)-5-((1r,3R)-3-fluorocyclobutyl)-4H-1,2,4-triazol-3-yl)-1-methoxypropane-2-sulfonamide]",5.4 nM
4,"COc1cccc(OC)c1-n1c(NS(=O)(=O)[C@@H](C)[C@H](OC)c2ncc(Cl)cn2)nnc1[C@H]1C[C@H](F)C1 (single isomer, unassigned) [Example 152.0, (1R,2S)-1-(5-chloropyrimidin-2-yl)-N-(4-(2,6-dimethoxyphenyl)-5-((1r,3S)-3-fluorocyclobutyl)-4H-1,2,4-triazol-3-yl)-1-methoxypropane-2-sulfonamide or (1R,2S)-1-(5-chloropyrimidin-2-yl)-N-(4-(2,6-dimethoxyphenyl)-5-((1s,3R)-3-fluorocyclobutyl)-4H-1,2,4-triazol-3-yl)-1-methoxypropane-2-sulfonamide]",4.2 nM
5,"COc1cccc(OC)c1-n1c(NS(=O)(=O)[C@@H](C)[C@H](OC)c2ncc(Cl)cn2)nnc1[C@H]1C[C@H](Cl)C1 (single isomer, unassigned) [Example 153.0, (1R,2S)-1-(5-chloropyrimidin-2-yl)-N-(4-(2,6-dimethoxyphenyl)-5-((1r,3S)-3-chlorocyclobutyl)-4H-1,2,4-triazol-3-yl)-1-methoxypropane-2-sulfonamide or (1R,2S)-1-(5-chloropyrimidin-2-yl)-N-(4-(2,6-dimethoxyphenyl)-5-((1s,3R)-3-chlorocyclobutyl)-4H-1,2,4-triazol-3-yl)-1-methoxypropane-2-sulfonamide]",1.5 nM
6,"COc1cccc(OC)c1-n1c(NS(=O)(=O)[C@@H](C)[C@H](OC)c2ncc(Cl)cn2)nnc1[C@H]1C[C@H](Cl)C1 (single isomer, unassigned) [Example 154.0, (1R,2S)-1-(5-chloropyrimidin-2-yl)-N-(4-(2,6-dimethoxyphenyl)-5-((1r,3S)-3-chlorocyclobutyl)-4H-1,2,4-triazol-3-yl)-1-methoxypropane-2-sulfonamide or (1R,2S)-1-(5-chloropyrimidin-2-yl)-N-(4-(2,6-dimethoxyphenyl)-5-((1s,3R)-3-chlorocyclobutyl)-4H-1,2,4-triazol-3-yl)-1-methoxypropane-2-sulfonamide]",0.18 nM
7,"COc1cccc(OC)c1-n1c(NS(=O)(=O)[C@@H](C)[C@H](OC)c2ncc(Cl)cn2)nnc1[C@H]1C[C@H](OC)C1 (single isomer, unassigned) [Example 155.0, (1R,2S)-1-(5-chloropyrimidin-2-yl)-N-(4-(2,6-dimethoxyphenyl)-5-((1r,3S)-3-methoxycyclobutyl)-4H-1,2,4-triazol-3-yl)-1-methoxypropane-2-sulfonamide or (1R,2S)-1-(5-chloropyrimidin-2-yl)-N-(4-(2,6-dimethoxyphenyl)-5-((1s,3R)-3-methoxycyclobutyl)-4H-1,2,4-triazol-3-yl)-1-methoxypropane-2-sulfonamide]",9.4 nM
8,"COc1cccc(OC)c1-n1c(NS(=O)(=O)[C@@H](C)[C@H](OC)c2ncc(Cl)cn2)nnc1[C@H]1C[C@H](OC)C1 (single isomer, unassigned) [Example 156.0, (1R,2S)-1-(5-chloropyrimidin-2-yl)-N-(4-(2,6-dimethoxyphenyl)-5-((1r,3S)-3-methoxycyclobutyl)-4H-1,2,4-triazol-3-yl)-1-methoxypropane-2-sulfonamide or (1R,2S)-1-(5-chloropyrimidin-2-yl)-N-(4-(2,6-dimethoxyphenyl)-5-((1s,3R)-3-methoxycyclobutyl)-4H-1,2,4-triazol-3-yl)-1-methoxypropane-2-sulfonamide]",11 nM
9,"COc1cccc(OC)c1-n1c(NS(=O)(=O)[C@@H](C)[C@H](OC)c2ncc(Cl)cn2)nnc1[C@H]1CCC1(F)F (single isomer, unassigned) [Example 159.0, (1R,2S)-1-(5-chloropyrimidin-2-yl)-N-(5-((R)-2,2-difluorocyclobutyl)-4-(2,6-dimethoxyphenyl)-4H-1,2,4-triazol-3-yl)-1-methoxypropane-2-sulfonamide or (1R,2S)-1-(5-chloropyrimidin-2-yl)-N-(5-((S)-2,2-difluorocyclobutyl)-4-(2,6-dimethoxyphenyl)-4H-1,2,4-triazol-3-yl)-1-methoxypropane-2-sulfonamide]",8 nM
10,"COc1cccc(OC)c1-n1c(NS(=O)(=O)[C@@H](C)[C@H](OC)c2ncc(Cl)cn2)nnc1[C@H]1CCC1(F)F (single isomer, unassigned) [Example 160.0, (1R,2S)-1-(5-chloropyrimidin-2-yl)-N-(5-((R)-2,2-difluorocyclobutyl)-4-(2,6-dimethoxyphenyl)-4H-1,2,4-triazol-3-yl)-1-methoxypropane-2-sulfonamide or (1R,2S)-1-(5-chloropyrimidin-2-yl)-N-(5-((S)-2,2-difluorocyclobutyl)-4-(2,6-dimethoxyphenyl)-4H-1,2,4-triazol-3-yl)-1-methoxypropane-2-sulfonamide]",27 nM
11,"COc1ncnc(OC)c1-n1c(NS(=O)(=O)[C@@H](C)[C@H](OC)c2ncc(Cl)cn2)nnc1[C@H]1C[C@@H](F)C1 (single isomer, unassigned) [Example 162.0, (1R,2S)-1-(5-chloropyrimidin-2-yl)-N-(4-(4,6-dimethoxypyrimidin-5-yl)-5-((1s,3R)-3-fluorocyclobutyl)-4H-1,2,4-triazol-3-yl)-1-methoxypropane-2-sulfonamide or (1R,2S)-1-(5-chloropyrimidin-2-yl)-N-(4-(4,6-dimethoxypyrimidin-5-yl)-5-((1r,3S)-3-fluorocyclobutyl)-4H-1,2,4-triazol-3-yl)-1-methoxypropane-2-sulfonamide]",14 nM
12,"COc1ncnc(OC)c1-n1c(NS(=O)(=O)[C@@H](C)[C@H](OC)c2ncc(Cl)cn2)nnc1[C@H]1C[C@@H](F)C1 (single isomer, unassigned) [Example 163.0, (1R,2S)-1-(5-chloropyrimidin-2-yl)-N-(4-(4,6-dimethoxypyrimidin-5-yl)-5-((1s,3R)-3-fluorocyclobutyl)-4H-1,2,4-triazol-3-yl)-1-methoxypropane-2-sulfonamide or (1R,2S)-1-(5-chloropyrimidin-2-yl)-N-(4-(4,6-dimethoxypyrimidin-5-yl)-5-((1r,3S)-3-fluorocyclobutyl)-4H-1,2,4-triazol-3-yl)-1-methoxypropane-2-sulfonamide]",46 nM
13,"COc1ncnc(OC)c1-n1c(NS(=O)(=O)[C@@H](C)[C@H](OC)c2ncc(Cl)cn2)nnc1[C@H]1C[C@@H](Cl)C1 (single isomer, unassigned) [Example 164.0, (1R,2S)-1-(5-chloropyrimidin-2-yl)-N-(4-(4,6-dimethoxypyrimidin-5-yl)-5-((1s,3R)-3-chlorocyclobutyl)-4H-1,2,4-triazol-3-yl)-1-methoxypropane-2-sulfonamide or (1R,2S)-1-(5-chloropyrimidin-2-yl)-N-(4-(4,6-dimethoxypyrimidin-5-yl)-5-((1r,3S)-3-chlorocyclobutyl)-4H-1,2,4-triazol-3-yl)-1-methoxypropane-2-sulfonamide]",0.54 nM
14,"COc1ncnc(OC)c1-n1c(NS(=O)(=O)[C@@H](C)[C@H](OC)c2ncc(Cl)cn2)nnc1[C@H]1C[C@@H](Cl)C1 (single isomer, unassigned) [Example 165.0, (1R,2S)-1-(5-chloropyrimidin-2-yl)-N-(4-(4,6-dimethoxypyrimidin-5-yl)-5-((1s,3R)-3-chlorocyclobutyl)-4H-1,2,4-triazol-3-yl)-1-methoxypropane-2-sulfonamide or (1R,2S)-1-(5-chloropyrimidin-2-yl)-N-(4-(4,6-dimethoxypyrimidin-5-yl)-5-((1r,3S)-3-chlorocyclobutyl)-4H-1,2,4-triazol-3-yl)-1-methoxypropane-2-sulfonamide]",9.7 nM
